In patent US6114326A, “Use of cabergoline in the treatment of restless legs syndrome” (priority 1999, dated 2000):
Like-named read-outs stand apart in the source and are kept apart here.

How the values were obtained:
[1] = test system: restless legs syndrome patients; assay: Prior treatment history of the trial patients
Experimental: See also, Stiasny K., Oertel W. H., Schuiler P. (1998). Cabergoline in RLS, ENS, Nice, Abstract.
Efficacy was assessed by polysomnography and subjective ratings. […] At study entry all patients were comedicated with domperidone (20 mg TID) and five were still under levodopa therapy (400-800 mg).
Subjects. Nine patients (seven women and two men, mean age 54.1±8.7, range 38.1-64.3 years) with idiopathic RLS for 23.1±13.7 years (range 5-47 years) participated. […] At study entry five patients were on levodopa with dosages ranging from 400-800 mg. […] The remaining four patients were off any specific RLS medication during baseline investigation. […] At baseline conditions the physician considered the patients to be extremely ill (2), very ill (4) or markedly ill (3).

[2] = test system: restless legs syndrome patients; details: 7.5 mg, cited from earlier work
[3] = cited from earlier work
[4] = test system: restless legs syndrome patients; details: cited from earlier work
[5] = test system: restless legs syndrome patients; details: cited from earlier work; remark: listed apart in the source
[6] = test system: restless legs syndrome patients; details: in vivo; cited from earlier work
[7] = test system: restless legs syndrome patients; details: open clinical trials of opioids; cited from earlier work

**Q.** With `CC(C)C[C@H]1C(=O)N2CCC[C@H]2[C@]2(O)O[C@](NC(=O)[C@@H]3C=C4c5cccc6[nH]c(Br)c(c56)C[C@H]4N(C)C3)(C(C)C)C(=O)N12` [Bromocriptine] as the molecule, how does the “side effect under prior treatment” value ([1]; bromocriptine 5 mg, one patient) read?
**A.** Its value is “severe arterial hypotension”.

**Q.** And the “patients with subjective improvement in restlessness and paresthesia compared to placebo” value ([2]; 1 to 3 hours prior to sleep, double blind crossover)?
**A.** The value was 5 of 6.

**Q.** And the side effects ([2]; one patient)?
**A.** Its side effects is “transient nasal stuffiness and lightheadedness”.

**Q.** What does the source list for `N[C@@H](Cc1ccc(O)c(O)c1)C(=O)O` [L-dopa]?
**A.** benefit of previous levodopa therapy ([1]; all patients, standard or standard and slow release): partial benefit; half-life ([3]; levodopa, regular release): 2 to 4 h; suppression of RLS (in words) ([4]; 100 mg with carbidopa 10 mg, most cases): completely suppresses RLS; rebound (augmentation) of PLMS in last part of the night ([4]; 100 mg with carbidopa 10 mg): often observed; rate of augmentation ([4]; 12 week study, Callado-Seidel et al.): 27%; patients with augmentation reporting 3 major symptoms of increased severity ([4]; 22 RLS patients with augmentation): 100%; rate of augmentation in PLMS patients ([4]; Allen and Earley, Sleep 1996): 31%; rate of augmentation in RLS patients ([4]; Allen and Earley, Sleep 1996): 82%; RLS patients with augmentation requiring a medication change ([4]; Allen and Earley): 50%; patients who responded to levodopa ([4]; Earley and Allen): 21 of 51; time until patients no longer respond well (tolerance) ([4]; L-Dopa or L-Dopa plus dopa-decarboxylase-inhibitor, usually): ≤ 6 months; patients reporting increased movement in other body parts ([4]; RLS patients with augmentation): 7%; tolerance (in words) ([4]; RLS): common; reduction of RLS at bedtime and PLMS throughout the night (in words) ([4]; double-blind PSG study, administered twice at night): significant reduction; efficacy in RLS (in words) ([4]; with peripheral carboxylase inhibitor, 10:1 ratio): effective

**Q.** For `CCCN1C[C@H](CSC)C[C@@H]2c3cccc4[nH]cc(c34)C[C@H]21` [Pergolide], which half-life ([3]; pergolide) is on record?
**A.** Its half-life is 7 to 16 h.

**Q.** What about the “effect in patients who developed augmentation under levodopa” value ([5]; 6 month open label trial) of the same molecule?
**A.** Its value is “some effect”.

**Q.** And the “patients who responded well to pergolide” value ([5]; Earley and Allen)?
**A.** Its value is 19 of 26.

**Q.** What about the “pergolide patients with augmentation” value ([5]; Earley and Allen) of the same molecule?
**A.** Its value is 4 of 26.

**Q.** And the side effects ([5]; pergolide with low dose L-dopa)?
**A.** Its side effects is “orthostatic hypotension and gastrointestinal problems”.

**Q.** And the “patients suffering from augmentation” value ([5]; pergolide, Earley and Allen)?
**A.** The value was 15%.

**Q.** What about the “augmentation under pergolide (in words)” value ([5]; two open trials, follow-up 6 to 28 and 2 to 39 months) of the same molecule?
**A.** Its value is “to a lower degree and less severe”.

**Q.** What about the “clinical improvement (in words)” value ([5]; with low dose L-dopa, patients not responding to L-dopa alone) of the same molecule?
**A.** Its value is “clinical improvement”.

**Q.** With `NCC1(CC(=O)O)CCCCC1` [gabapentin] as the molecule, how does the possible side effects [6] read?
**A.** Its possible side effects is “dizziness, sleepiness, fatigue, increased appetite, and unsteadiness”.

**Q.** Which “reversal by naloxone (in words)” value [7] does the source give for `C=CCN1CC[C@]23c4c5ccc(O)c4O[C@H]2C(=O)CC[C@@]3(O)[C@H]1C5` [naloxone] here?
**A.** The value was “reversible”.
